Measured values as given in patent publication US8324246B2, “Indol carboxylic acid bispyridyl carboxamide derivatives, pharmaceutically acceptable salt thereof, preparation method and composition containing the same as an active ingredient” (Korea Research Institute of Chemical Technology, priority 2008, dated 2012).
Where two headings read alike, the source gives them in different places.

Assays:
5-HT1a = target: T1, 5-HT1a (Homo sapiens, UniProt P08908); assay: Receptor selectivity binding, 5-HT1a; details: Table 3
T1 sequence (P08908 1-422): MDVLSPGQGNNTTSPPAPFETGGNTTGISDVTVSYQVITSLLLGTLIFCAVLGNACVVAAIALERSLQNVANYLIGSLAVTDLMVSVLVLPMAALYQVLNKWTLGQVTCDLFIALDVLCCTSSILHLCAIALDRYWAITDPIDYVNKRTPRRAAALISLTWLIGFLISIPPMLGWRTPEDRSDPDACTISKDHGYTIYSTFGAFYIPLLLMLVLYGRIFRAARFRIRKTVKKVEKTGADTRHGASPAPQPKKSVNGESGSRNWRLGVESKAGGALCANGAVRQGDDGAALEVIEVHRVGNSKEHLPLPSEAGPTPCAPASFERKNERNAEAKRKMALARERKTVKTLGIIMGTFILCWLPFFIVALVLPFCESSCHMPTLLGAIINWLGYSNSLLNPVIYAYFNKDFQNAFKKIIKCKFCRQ
Experimental: (§1) For their high binding affinities for 5-HT2c, compounds in Examples 14 to 18, 20, and 22 or in Comparative Example 1 were used for the experiment with reaction mixtures. Except that CNS receptors such as 5-HT1a, 5-HT2a, 5-HT7, D2, D3 or D4 other than 5-HT2c were used as a receptor, IC50 values (nM) were measured in the same manner as in Experimental Example 1.

5-HT6 = 5-HT6 (Homo sapiens, UniProt P50406); assay: Receptor selectivity binding, 5-HT6; details: Table 3
Sequence of 5-HT6 (P50406 whole entry, species assumed): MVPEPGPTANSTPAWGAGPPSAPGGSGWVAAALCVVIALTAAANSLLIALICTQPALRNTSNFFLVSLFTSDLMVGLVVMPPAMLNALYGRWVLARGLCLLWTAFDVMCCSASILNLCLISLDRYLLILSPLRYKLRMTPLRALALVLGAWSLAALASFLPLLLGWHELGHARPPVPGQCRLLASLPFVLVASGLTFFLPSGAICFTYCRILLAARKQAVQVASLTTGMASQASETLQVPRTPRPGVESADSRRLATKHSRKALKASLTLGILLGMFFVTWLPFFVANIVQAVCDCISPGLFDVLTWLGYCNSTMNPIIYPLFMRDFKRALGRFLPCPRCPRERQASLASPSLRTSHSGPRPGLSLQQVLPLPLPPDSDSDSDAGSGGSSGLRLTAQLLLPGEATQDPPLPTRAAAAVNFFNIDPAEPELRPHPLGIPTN
Experimental: as §1

5-HT2a = 5-HT2a (Homo sapiens, UniProt P28223); assay: Receptor selectivity binding, 5-HT2a; details: Table 3
Sequence of 5-HT2a (P28223 whole entry, species assumed): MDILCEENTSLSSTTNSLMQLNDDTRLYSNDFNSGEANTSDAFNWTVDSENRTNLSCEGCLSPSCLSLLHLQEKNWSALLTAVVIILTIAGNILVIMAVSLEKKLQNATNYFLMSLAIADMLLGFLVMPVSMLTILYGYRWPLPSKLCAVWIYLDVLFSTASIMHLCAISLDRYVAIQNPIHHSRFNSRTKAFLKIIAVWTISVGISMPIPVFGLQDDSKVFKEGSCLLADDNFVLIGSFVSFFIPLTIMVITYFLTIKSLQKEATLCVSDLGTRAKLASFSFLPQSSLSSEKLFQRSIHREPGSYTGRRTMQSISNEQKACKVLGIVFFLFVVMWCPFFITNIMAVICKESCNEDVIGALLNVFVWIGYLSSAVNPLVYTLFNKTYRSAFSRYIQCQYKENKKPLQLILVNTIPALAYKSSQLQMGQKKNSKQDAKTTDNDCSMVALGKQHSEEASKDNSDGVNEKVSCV
Experimental: as §1

[1] = target: T2, human gene recombinant 5-HT2c receptor expressed in CHO-K1 cell (Homo sapiens, UniProt P28335); assay: Binding affinity to the serotonin 5-HT2c receptor ([3H]mesulergine)
T2 construct: purchased Euroscreen, Belgium; host or cells: CHO-K1
T2 sequence (P28335 33-458): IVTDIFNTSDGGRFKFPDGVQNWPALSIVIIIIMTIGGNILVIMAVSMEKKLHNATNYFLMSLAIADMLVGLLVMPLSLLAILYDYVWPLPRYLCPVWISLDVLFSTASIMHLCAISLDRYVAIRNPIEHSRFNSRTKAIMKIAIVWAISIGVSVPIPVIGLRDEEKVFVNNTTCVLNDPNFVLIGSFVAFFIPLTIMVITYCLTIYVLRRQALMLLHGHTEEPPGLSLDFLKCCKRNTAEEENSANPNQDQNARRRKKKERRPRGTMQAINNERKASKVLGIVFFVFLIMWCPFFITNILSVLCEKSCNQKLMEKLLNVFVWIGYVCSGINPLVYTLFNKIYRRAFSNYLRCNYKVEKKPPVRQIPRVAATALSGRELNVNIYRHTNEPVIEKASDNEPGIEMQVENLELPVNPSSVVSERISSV
Experimental: As a receptor, a human gene recombinant 5-HT2c receptor expressed in CHO—K1 cell was purchased from Euroscreen, Belgium and used in the experiment, and as a radioactive isotope, [3H]mesulergine (Amersham Biosciences, UK).
A final volume of 0.25 ml reaction mixture was prepared by adding 50 mM Tris-HCl buffer (pH 7.7) containing one of the compounds in Examples 1-29 or Comparative Examples 1-2, 1 nM of [3H]mesulergine, 5-HT2c receptor membranes (4 D/well), 0.1% ascorbic acid and 10 µM pargyline, and incubated at 37° C. for 30 minutes. After incubation, the reaction was terminated by the rapid filtration using an Inotech harvester (Inotech) through a Wallace GF/C glass fiber filter (Wallac, Finland) which was presoaked in 1% BSA, and then washed with ice-cold 50 mM Tris-HCl buffer. The filter was covered with MeltiLex, sealed in a sample bag followed by drying in the oven, and counted by MicroBeta Plus (Wallac). Non-specific binding was determined in the presence of […] Mianserin. Three repeating experiments were carried out with 7-8 concentrations of the compound in Examples 1-29 or the compound in comparative examples 1-2, run in duplicate tubes, and isotherms from the three assays were calculated by a nonlinear regression analysis (GraphPad Prism Program, San Diego, USA) to yield IC50 values.

D4 = target: T3, D4 (Homo sapiens, UniProt P21917); assay: Receptor selectivity binding, D4; details: Table 3
T3 sequence (P21917 1-419): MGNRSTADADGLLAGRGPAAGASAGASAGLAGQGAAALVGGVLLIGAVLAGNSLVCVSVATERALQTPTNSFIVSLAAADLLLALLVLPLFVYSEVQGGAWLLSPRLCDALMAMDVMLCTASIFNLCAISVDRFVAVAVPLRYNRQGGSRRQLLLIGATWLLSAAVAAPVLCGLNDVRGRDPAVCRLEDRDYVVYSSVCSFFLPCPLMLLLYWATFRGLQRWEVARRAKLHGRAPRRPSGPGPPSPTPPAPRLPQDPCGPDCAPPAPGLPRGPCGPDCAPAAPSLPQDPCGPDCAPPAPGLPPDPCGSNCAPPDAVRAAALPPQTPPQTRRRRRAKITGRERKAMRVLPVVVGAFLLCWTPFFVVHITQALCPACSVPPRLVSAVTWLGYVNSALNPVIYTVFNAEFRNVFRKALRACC
Experimental: as §1

D2 = D2 (Homo sapiens, UniProt P14416); assay: Receptor selectivity binding, D2; details: Table 3
Sequence of D2 (P14416 whole entry): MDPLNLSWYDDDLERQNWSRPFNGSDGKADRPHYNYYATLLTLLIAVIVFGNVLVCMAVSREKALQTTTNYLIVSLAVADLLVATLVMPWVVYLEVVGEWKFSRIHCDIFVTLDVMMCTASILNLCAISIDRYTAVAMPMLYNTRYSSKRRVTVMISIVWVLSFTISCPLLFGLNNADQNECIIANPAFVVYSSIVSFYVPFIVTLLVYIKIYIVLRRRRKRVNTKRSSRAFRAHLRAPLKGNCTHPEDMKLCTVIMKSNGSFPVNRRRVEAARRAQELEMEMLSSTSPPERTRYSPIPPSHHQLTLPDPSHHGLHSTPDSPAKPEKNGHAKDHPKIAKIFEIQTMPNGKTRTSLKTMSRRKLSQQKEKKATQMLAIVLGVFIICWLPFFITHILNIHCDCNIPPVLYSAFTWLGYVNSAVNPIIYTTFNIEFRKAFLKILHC
Experimental: as §1

D3 = D3 (Homo sapiens, UniProt P35462); assay: Receptor selectivity binding, D3; details: Table 3
Sequence of D3 (P35462 whole entry): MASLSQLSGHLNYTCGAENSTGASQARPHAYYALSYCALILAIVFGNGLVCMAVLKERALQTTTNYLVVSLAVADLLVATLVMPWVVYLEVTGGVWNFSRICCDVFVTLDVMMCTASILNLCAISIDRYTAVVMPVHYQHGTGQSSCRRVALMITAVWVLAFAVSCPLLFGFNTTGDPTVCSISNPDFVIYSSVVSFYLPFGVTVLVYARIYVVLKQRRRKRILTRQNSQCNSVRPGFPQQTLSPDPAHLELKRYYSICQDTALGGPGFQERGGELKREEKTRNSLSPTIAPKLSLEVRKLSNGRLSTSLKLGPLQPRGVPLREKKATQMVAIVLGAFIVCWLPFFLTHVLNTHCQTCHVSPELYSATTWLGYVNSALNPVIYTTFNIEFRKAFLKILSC
Experimental: as §1

5-HT7 = 5-HT7 (Homo sapiens, UniProt P34969); assay: Receptor selectivity binding, 5-HT7; details: Table 3
Sequence of 5-HT7 (P34969 whole entry, species assumed): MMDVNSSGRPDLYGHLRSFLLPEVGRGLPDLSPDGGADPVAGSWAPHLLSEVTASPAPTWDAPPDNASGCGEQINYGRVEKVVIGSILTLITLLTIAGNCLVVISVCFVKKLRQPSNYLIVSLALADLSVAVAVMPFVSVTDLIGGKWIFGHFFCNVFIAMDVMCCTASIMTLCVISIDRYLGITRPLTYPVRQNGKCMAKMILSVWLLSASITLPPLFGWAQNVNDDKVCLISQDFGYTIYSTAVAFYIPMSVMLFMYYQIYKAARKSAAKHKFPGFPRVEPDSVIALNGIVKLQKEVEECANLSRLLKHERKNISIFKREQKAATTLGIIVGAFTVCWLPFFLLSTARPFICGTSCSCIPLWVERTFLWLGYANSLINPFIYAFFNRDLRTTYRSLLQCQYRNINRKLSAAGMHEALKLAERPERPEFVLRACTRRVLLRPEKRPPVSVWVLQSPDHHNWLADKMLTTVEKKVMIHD
Experimental: as §1

human 5-HT2c receptors = target: T4, human 5-HT2c receptors (Homo sapiens, UniProt P28335); details: for Inhibition rate of serotonin (5-HT)-induced [35S]GTPS increase: 30 µM serotonin
T4 sequence (P28335 33-458): T2 sequence (P28335 33-458)

[2] = [3H]mesulergine 1 nM, 37° C. 30 minutes, Table 2, read-out: IC50

| SMILES | IC50 (5-HT1a) | IC50 (5-HT6) | IC50 (5-HT2a) | IC50 ([1]; Table 3, read-out: IC50 5-HT2c) | IC50 [1, 2] | IC50 (D4) | IC50 (D2) | IC50 (D3) | IC50 (5-HT7) | inhibition of the 5-HT-induced increase in [35S]GTPS concentration level (human 5-HT2c receptors; control 5-HT2c antagonist) | Inhibition rate of serotonin (5-HT)-induced [35S]GTPS increase (human 5-HT2c receptors; concentration 0.001 µM) | Inhibition rate of serotonin (5-HT)-induced [35S]GTPS increase (human 5-HT2c receptors; concentration 0.01 µM) | Inhibition rate of serotonin (5-HT)-induced [35S]GTPS increase (human 5-HT2c receptors; concentration 0.1 µM) | Inhibition rate of serotonin (5-HT)-induced [35S]GTPS increase (human 5-HT2c receptors; concentration 1 µM) | Inhibition rate of serotonin (5-HT)-induced [35S]GTPS increase (human 5-HT2c receptors; concentration 10 µM) | IC50 (human 5-HT2c receptors; read-out: IC50, antagonist activity on serotonin (5-HT)-induced GTP level increase, 30 M serotonin) |
| --- | --- | --- | --- | --- | --- | --- | --- | --- | --- | --- | --- | --- | --- | --- | --- | --- |
| Cc1ncccc1Oc1ccc(NC(=O)c2c[nH]c3c(C)cccc23)cn1 [Example 17, 7-methyl-1H-indole-3-carboxylic acid[6-(2-methyl-pyridine-3-yloxy)-pyridine-3-yl]-amide] | > 10000 nM | > 10000 nM | > 10000 nM | 8.2 nM | 8.2 nM | > 10000 nM | > 10000 nM | > 10000 nM | > 10000 nM |  |  |  |  |  |  |  |
| Cc1ncccc1Oc1ccc(NC(=O)c2c[nH]c3ccc(I)cc23)cn1 [Example 18, 5-iodo-1H-indole-3-carboxylic acid[6-(2-methyl-pyridine-3-yloxy)-pyridine-3-yl]-amide] | 780 nM | > 1000 nM | 84.7 nM | 0.62 nM | 0.6 nM | > 1000 nM | > 10000 nM | > 1000 nM | > 1000 nM |  |  |  |  |  |  |  |
| COc1ccc2[nH]cc(C(=O)Nc3ccc(Oc4cccnc4C)nc3)c2c1 [Example 15, 5-methoxy-1H-indole-3-carboxylic acid[6-(2-methyl-pyridine-3-yloxy)-pyridine-3-yl]-amide] | > 10000 nM | > 10000 nM | > 10000 nM | 10.7 nM | 10.7 nM | > 10000 nM | > 10000 nM | > 10000 nM | > 10000 nM |  |  |  |  |  |  |  |
| Cc1cc2c(cc1C(F)(F)F)N(C(=O)Nc1ccc(Oc3cccnc3C)nc1)CC2 [Comparative Example 1, SB-243213, reference compound] | > 1000 nM | 667 nM | 32.4 nM | 0.7 nM | 0.7 nM | > 10000 nM | > 1000 nM | > 1000 nM | > 1000 nM |  |  |  |  |  |  |  |
| Cc1cc2c(cc1Cl)N(C(=O)Nc1ccc(Oc3cccnc3C)nc1)CC2 [SB242084, reference compound] |  |  |  |  |  |  |  |  |  | inhibited |  |  |  |  |  |  |
| O=C(Nc1ccc(Oc2cccnc2Cl)nc1)c1c[nH]c2ccccc12 [Example 22, 1H-indole-3-carboxylic acid[6-(2-chloro-pyridine-3-yloxy)-pyridine-3-yl]-amide] | > 10000 nM | > 10000 nM | > 1000 nM | 0.5 nM | 0.5 nM | > 1000 nM | > 10000 nM | > 10000 nM | > 10000 nM |  | 0% | 1% | 9% | 67% | 100% | 590 nM |
| Cc1ccc2[nH]cc(C(=O)Nc3ccc(Oc4cccnc4C)nc3)c2c1 [Example 14, 5-methyl-1H-indole-3-carboxylic acid[6-(2-methyl-pyridine-3-yloxy)-pyridine-3-yl]-amide] | > 10000 nM | > 10000 nM | > 1000 nM | 4.5 nM | 4.5 nM | > 10000 nM | > 10000 nM | > 10000 nM | > 10000 nM |  |  |  |  |  |  |  |
